Experiments:
[1] = test system: antibodies in sera from SARS patients (sera 1a, 1b, 2, 6, 37, 62, London, SARS-yellow, SARS-green); assay type: binding, human; parameters: Binding of serum 6 to linear peptides of protein X1 of SARS-CoV Urbani / Binding of serum 37 to linear peptides of protein X1 of SARS-CoV Urbani / Binding of serum 6 to looped/cyclic peptide (PEPSCAN-ELISA) / Binding of serum 37 to looped/cyclic peptide (PEPSCAN-ELISA) / Binding of serum 37 to looped/cyclic peptides of protein X1 of SARS-CoV Urbani / Binding of serum 6 to linear peptides of protein X2 / Binding of serum 37 to linear peptides of protein X2 / Binding of serum 37 to looped/cyclic peptides of protein X2 of SARS-CoV Urbani / Binding of serum 6 to linear peptides of protein M of SARS-CoV Urbani / Binding of serum 37 to linear peptides of protein M of SARS-CoV Urbani / Binding of serum 6 to looped/cyclic peptides of protein M of SARS-CoV Urbani / Binding of serum 37 to looped/cyclic peptides of protein M of SARS-CoV Urbani / Binding of serum 6 to linear peptides of protein X3 of SARS-CoV Urbani / Binding of serum 37 to linear peptides of protein X3 of SARS-CoV Urbani / Binding of serum 37 to looped/cyclic peptides of protein X3 of SARS-CoV Urbani / Binding of serum 6 to linear peptides of protein X4 of SARS-CoV Urbani / Binding of serum 37 to linear peptides of protein X4 of SARS-CoV Urbani / Binding of serum 37 to looped/cyclic peptides of protein X4 of SARS-CoV Urbani / Binding of serum 6 to linear peptides of protein X5 of SARS-CoV Urbani / Binding of serum 37 to linear peptides of protein X5 of SARS-CoV Urbani / Binding of serum 37 to looped/cyclic peptides of protein X5 of SARS-CoV Urbani / Binding of serum 6 to linear peptides of protein N of SARS-CoV Urbani / Binding of serum 37 to linear peptides of protein N of SARS-CoV Urbani / Binding of serum 6 to linear peptide (PEPSCAN-ELISA) / Binding of serum 1a to looped/cyclic peptides of protein N of SARS-CoV Urbani / Binding of serum 1b to looped/cyclic peptides of protein N of SARS-CoV Urbani / Binding of serum 2 to looped/cyclic peptides of protein N of SARS-CoV Urbani / Binding of serum 6 to looped/cyclic peptides of protein N of SARS-CoV Urbani / Binding of serum 37 to looped/cyclic peptides of protein N of SARS-CoV Urbani / Binding of serum 62 to looped/cyclic peptides of protein N of SARS-CoV Urbani / Binding of serum London to looped/cyclic peptides of protein N of SARS-CoV Urbani / Binding of serum SARS-green to looped/cyclic peptides of protein N of SARS-CoV Urbani: unit not given here
[2] = test system: control sera (pooled serum of ten healthy LUMC hospital workers; commercial negative donor pooled serum from the Dutch bloodbank); assay type: binding, human; parameters: Binding of Control serum LUMC to linear peptides / Binding of Control serum Blood-bank to linear peptides / Binding of Control serum LUMC to looped peptides / Binding of Control Serum Blood-Bank to Looped peptides / Binding of Control serum LUMC to linear peptides of the protein M of SARS-CoV Urbani / Binding of Control serum Blood-bank to linear peptides of the protein M of SARS-CoV Urbani / Binding of Control serum LUMC to looped peptides of the protein M of SARS-CoV Urbani / Binding of Control Serum Blood-Bank to Looped peptides of the protein M of SARS-CoV Urbani: unit not given here
[3] = test system: rabbit serum obtained by immunizing a rabbit with the SARS-CoV strain Frankfurt 1; assay type: binding; parameters: Binding of a rabbit serum to linear peptides / Binding of a rabbit serum to looped peptides / Rabbit serum linear peptides / Rabbit serum looped peptides / Binding of a rabbit serum to linear peptides of protein N of SARS-CoV Urbani (Rabbit serum linear peptides) / Binding of a rabbit serum to looped/cyclic peptides of protein N of SARS-CoV Urbani (Rabbit serum looped peptides): unit not given here

## MACIVGLMWLSYFVA
[1]
  Binding of serum 1a to linear peptides of protein M of SARS-CoV Urbani: 0.7
  Binding of serum 1a to looped/cyclic peptides of protein M of SARS-CoV Urbani: 0.7
  Binding of serum 1b to linear peptides of protein M of SARS-CoV Urbani: 0.5
  Binding of serum 1b to looped/cyclic peptides of protein M of SARS-CoV Urbani: 0.4
  Binding of serum 2 to linear peptides of protein M of SARS-CoV Urbani: 0.4
  Binding of serum 2 to looped/cyclic peptides of protein M of SARS-CoV Urbani: 0.4
  Binding of serum 6 to linear peptides of protein M of SARS-CoV Urbani: 0.3
  Binding of serum 6 to looped/cyclic peptides of protein M of SARS-CoV Urbani: 0.5
  Binding of serum 37 to linear peptides of protein M of SARS-CoV Urbani: 0.4
  Binding of serum 37 to looped/cyclic peptides of protein M of SARS-CoV Urbani: 0.4
  Binding of serum 62 to linear peptides of protein M of SARS-CoV Urbani: 0.4
  Binding of serum 62 to looped/cyclic peptides of protein M of SARS-CoV Urbani: 0.5
  Binding of serum London to linear peptides of protein M of SARS-CoV Urbani: 0.3
  Binding of serum London to looped/cyclic peptides of protein M of SARS-CoV Urbani: 0.2
  Binding of serum SARS-green to linear peptides of protein M of SARS-CoV Urbani: 0.3
  Binding of serum SARS-green to looped/cyclic peptides of protein M of SARS-CoV Urbani: 0.2
  Binding of serum SARS-yellow to linear peptides of protein M of SARS-CoV Urbani: 0.2
  Binding of serum SARS-yellow to looped/cyclic peptides of protein M of SARS-CoV Urbani: 0.4
[2]
  Binding of Control Serum Blood-Bank to Looped peptides of the protein M of SARS-CoV Urbani: 0.4
  Binding of Control serum Blood-bank to linear peptides of the protein M of SARS-CoV Urbani: 0.5
  Binding of Control serum LUMC to linear peptides of the protein M of SARS-CoV Urbani: 0.5
  Binding of Control serum LUMC to looped peptides of the protein M of SARS-CoV Urbani: 0.6
[3]
  Rabbit serum linear peptides: 0.2
  Rabbit serum looped peptides: 0.0

## LQELLIQQWIQFMMS
[1]
  Binding of serum 1a to linear peptides of protein X2: 0.7
  Binding of serum 1a to looped/cyclic peptides of protein X2 of SARS-CoV Urbani: 0.6
  Binding of serum 1b to linear peptides of protein X2: 0.6
  Binding of serum 1b to looped/cyclic peptides of protein X2 of SARS-CoV Urbani: 0.5
  Binding of serum 2 to linear peptides of protein X2: 0.3
  Binding of serum 2 to looped/cyclic peptides of protein X2 of SARS-CoV Urbani: 0.3
  Binding of serum 6 to linear peptides of protein X2: 0.3
  Binding of serum 6 to looped/cyclic peptides of protein X2 of SARS-CoV Urbani: 0.2
  Binding of serum 37 to linear peptides of protein X2: 0.5
  Binding of serum 37 to looped/cyclic peptides of protein X2 of SARS-CoV Urbani: 0.4
  Binding of serum 62 to linear peptides of protein X2: 0.5
  Binding of serum 62 to looped/cyclic peptides of protein X2 of SARS-CoV Urbani: 0.6
  Binding of serum London to linear peptides of protein X2: 0.4
  Binding of serum London to looped/cyclic peptides of protein X2 of SARS-CoV Urbani: 0.2
  Binding of serum SARS-green to linear peptides of protein X2: 0.5
  Binding of serum SARS-green to looped/cyclic peptides of protein X2 of SARS-CoV Urbani: 0.2
  Binding of serum SARS-yellow to linear peptides of protein X2: 0.6
  Binding of serum SARS-yellow to looped/cyclic peptides of protein X2 of SARS-CoV Urbani: 0.3
[2]
  Binding of Control Serum Blood-Bank to Looped peptides: 0.6
  Binding of Control serum Blood-bank to linear peptides: 0.5
  Binding of Control serum LUMC to linear peptides: 0.3
  Binding of Control serum LUMC to looped peptides: 0.6
[3]
  Binding of a rabbit serum to linear peptides: 0.3
  Binding of a rabbit serum to looped peptides: 0.3

## MRFFTLGSITAQPVK
[1]
  Binding of serum 1a to linear peptides of protein X1 of SARS-CoV Urbani: 0.6
  Binding of serum 1a to looped/cyclic peptide (PEPSCAN-ELISA): 0.3
  Binding of serum 1b to linear peptides of protein X1 of SARS-CoV Urbani: 0.4
  Binding of serum 1b to looped/cyclic peptide (PEPSCAN-ELISA): 0.1
  Binding of serum 2 to linear peptides of protein X1 of SARS-CoV Urbani: 0.4
  Binding of serum 2 to looped/cyclic peptide (PEPSCAN-ELISA): 0.1
  Binding of serum 6 to linear peptides of protein X1 of SARS-CoV Urbani: 0.6
  Binding of serum 6 to looped/cyclic peptide (PEPSCAN-ELISA): 0.2
  Binding of serum 37 to linear peptides of protein X1 of SARS-CoV Urbani: 0.6
  Binding of serum 37 to looped/cyclic peptide (PEPSCAN-ELISA): 0.2
  Binding of serum 62 to linear peptides of protein X1 of SARS-CoV Urbani: 0.4
  Binding of serum 62 to looped/cyclic peptide (PEPSCAN-ELISA): 0.3
  Binding of serum London to linear peptides of protein X1 of SARS-CoV Urbani: 0.5
  Binding of serum London to looped/cyclic peptide (PEPSCAN-ELISA): 0.2
  Binding of serum SARS-green to linear peptides of protein X1 of SARS-CoV Urbani: 0.2
  Binding of serum SARS-green to looped/cyclic peptide (PEPSCAN-ELISA): 0.1
  Binding of serum SARS-yellow to linear peptides of protein X1 of SARS-CoV Urbani: 0.4
  Binding of serum SARS-yellow to looped/cyclic peptide (PEPSCAN-ELISA): 0.1
[2]
  Binding of Control Serum Blood-Bank to Looped peptides: 0.2
  Binding of Control serum Blood-bank to linear peptides: 0.4
  Binding of Control serum LUMC to linear peptides: 0.7
  Binding of Control serum LUMC to looped peptides: 0.4
[3]
  Binding of a rabbit serum to linear peptides: 0.4
  Binding of a rabbit serum to looped peptides: 0.2

— US20070128217A1 (priority 2003, published 2007)
